Results from paper PMC9458978, “Design, synthesis and biological evaluation of novel biphenylsulfonamide derivatives as selective AT2 receptor antagonists” (Frontiers in Chemistry, 2022).
Entries after “also recorded” stand apart in the source; their conditions may differ. Read-outs that look alike come from different tables or passages of the source.

Legend:
AT1 receptor = molecular target: T1, AT1 receptor (Rattus norvegicus, UniProt P25095); assay: Rat liver membrane AT1 receptor binding assay ([125I]-Ang II displacement); details: displacement of [125I]-Ang II, rat liver membranes; means ± SE, triplicate; read-out: Ki (nM) AT1R
T1 construct: Rat liver membranes were prepared according to the method of Dudley et al; from tissue; host or cells: rat liver membranes
T1 sequence (P25095 whole entry): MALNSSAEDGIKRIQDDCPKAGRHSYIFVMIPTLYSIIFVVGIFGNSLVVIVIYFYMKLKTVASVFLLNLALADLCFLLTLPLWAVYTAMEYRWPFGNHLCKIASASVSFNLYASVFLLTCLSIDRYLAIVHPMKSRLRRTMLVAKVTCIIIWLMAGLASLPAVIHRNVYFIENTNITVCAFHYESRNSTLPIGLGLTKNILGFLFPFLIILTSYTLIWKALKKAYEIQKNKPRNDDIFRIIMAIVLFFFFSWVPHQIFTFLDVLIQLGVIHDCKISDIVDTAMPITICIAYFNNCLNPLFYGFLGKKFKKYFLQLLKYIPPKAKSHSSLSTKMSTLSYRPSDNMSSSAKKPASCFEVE
Description: The target compounds were evaluated for AT1 receptor binding affinity by displacement of [^125I]-Ang II from the AT1 receptor in rat liver membranes. The radio-iodinated AT2 receptor selective ligand [^125I]-CGP42112 was used to study AT2 receptor binding affinity in HEK-293 cells (HEK293-hAT2R) ([Dudley et al., 1990]; [Whitebread et al., 1991]). All of above methods were widely accepted and used to evaluate the binding activity of AT1 and AT2 receptors.
Rat liver membranes were prepared according to the method of Dudley et al ([Dudley et al., 1990]). After HEK-293 cells were transfected with the AT2 receptor, a lysis buffer was used to separate the cell membrane of HEK-293 cells ([Grieger et al., 2016]), using 27-G Resuspend. The lysis solution was mixed and centrifuged at 12,000 g for 10 min at 4°C. Details are shown in the Supplementary Material.
3. Radioligand binding assay steps
3.1 Rat Liver Membrane AT1 Receptor Binding Assay.
Rat liver membranes were prepared according to the method of Dudley et al[1].
Binding of [125I]-Ang II to membranes was conducted in a final volume of 0.5 mL containing 50 mM Tris-HCl (pH 7.4), 100 mM NaCl, 10 mM MgCl2, 1 mM EDTA, 0.025% bacitracin, 0.2% BSA (bovine serum albumin), liver homogenate corresponding to 5 mg of the original tissue weight, [125I]-Ang II (80000-85 000 cpm, 0.03 nM), and variable concentrations of test substance. Samples were incubated at 25 ℃ for 2 h, and binding was terminated by filtration through Whatman GF/B glass-fiber filter sheets, which had been presoaked overnight with 0.3 % polyethylamine, using a Brandel cell harvester. The filterswere washed with 3×3 mL of Tris-HCl (pH 7.4) and transferred to tubes. The radioactivity was measured in a γ-counter. The characteristics of the Ang II binding AT1receptor was determined by using six different concentrations (0.03-5 nmol/L) of the labeled [125I]-Ang II.
Nonspecific binding was determined in the presence of 1 µM Ang II.The specific binding was determined by subtracting the nonspecific binding from the total bound [125I]-Ang II.The apparent dissociation constant Ki values were calculated from IC50 values using the Cheng-Prusoff equation. […]
(§1) one-site fit.All determinations were performed in triplicate. […]

AT2 receptor [1] = assay: Neurite outgrowth assay with NG108-15 cells (AT2 receptor function assay)
Description: The ratio of cell neurite outgrowth was used to evaluate, and the details are shown in the Supplementary Material.
NG108-15 cells (China Center for Type Culture Collection CCTCC) were used to study the in vitro morphological effects. In their undifferentiated state, neuroblastoma × glioma hybrid NG108-15 cells havea rounded shape and divide actively. The cells were cultured from passage 18–25 in Dulbecco’s modified Eagle’s medium (DMEM, Gibco BRL, Thermo Fisher Technology (China) Co., Ltd, China) with 10% fetal bovine serum (FBS, Gibco), HAT supplement and 50 mg L^−1 gentamycin at 37°C in 75 cm^2 Nunclon Delta flasks in a humidified atmosphere of 95% air and 5% CO2, as previously described ([Buisson et al., 1992]). Subcultures were performed at subconfluency. Under these conditions, cells express mainly the AT2 receptor subtype ([Whitebread et al., 1991]). Cells were treated during 3 days, once a day (first treatment 24 h after plating), and micrographs were taken on the fourth day. The details of experimental grouping and administration method are shown in the Supplementary Material. […]
4. NG108-15 cell experiment steps […]
peptidic AT2 receptor agonist CGP-42112A induces neurite outgrowth. The […]
plated as described in the Experimental Section, and adequate test concentrations for […]
each compound were determined by testing a dilution series of each compound […]
ranging from 1 pM to 1 uM.
The chemicals used in the present study were obtained from the following sources: Dulbecco’s modified Eagle’s medium (DMEM), heat-inactivated fetal bovine serum (FBS), HAT supplement (hypoxanthine, aminopterin, thymidine), gentamycin from Gibco BRL (Burlington, Ontario, Canada), and Ang II from MedChemExpress

AT2 receptor [2] = molecular target: T2, AT2 receptor (Homo sapiens, UniProt P50052); assay: HEK-293 cell AT2 receptor binding assay ([125I]-CGP42112 displacement, HEK293-hAT2R)
T2 construct: expressed in transfected cells; host or cells: HEK-293
T2 sequence (P50052 1-363): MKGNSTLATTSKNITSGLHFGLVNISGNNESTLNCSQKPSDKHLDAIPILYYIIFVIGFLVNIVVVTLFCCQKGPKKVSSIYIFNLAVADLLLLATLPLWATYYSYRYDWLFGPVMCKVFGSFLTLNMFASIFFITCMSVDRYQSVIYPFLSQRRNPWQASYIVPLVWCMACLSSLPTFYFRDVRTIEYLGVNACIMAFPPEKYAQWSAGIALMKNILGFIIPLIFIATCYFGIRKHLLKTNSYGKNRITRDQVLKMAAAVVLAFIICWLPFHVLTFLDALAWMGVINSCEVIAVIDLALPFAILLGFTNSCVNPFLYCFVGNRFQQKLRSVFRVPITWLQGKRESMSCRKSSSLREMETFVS
Description: All of above methods were widely accepted and used to evaluate the binding activity of AT1 and AT2 receptors.
The lysis solution was mixed and centrifuged at 12,000 g for 10 min at 4°C. Details are shown in the Supplementary Material.
After HEK-293 cells were transfected with AT2 receptor, lysis buffer (150 mM NaCl, 0.1% Triton X-100, 50 mM Tris-HCl, 1 mM EDTA, protease inhibitor) was used to separate the cell membrane of HEK-293 cells[2],using 27-G Resuspend and mix the lysis solution, and centrifuge at 12,000 g for 10 minutes at 4 °C. The supernatant was collected and centrifuged for a further 60 minutes. The precipitated membrane extracts were buffered (150 mM NaCl, 10 mM MgCl2, 0.5 % SDS, 1 % Triton X-100, 50 mM Tris-Cl, 1 mM EDTA, protease inhibitor ) for resuspension. […]
mL containing 50 mM Tris-HCl (pH 7.4), 100 mM NaCl, 10 mM MgCl2, 1 mM […]
cpm, 0.03 nM), and variable concentrations of test substance. Samples were incubated at 25 ℃ for 2 h, and binding was terminated by filtration through Whatman GF/B glass-fiber filter sheets, which had been presoaked overnight with 0.3 % polyethylamine, using a Brandel cell harvester. The filterswere washed with 3×3 mL of Tris-HCl (pH 7.4) and transferred to tubes. The radioactivity was measured in a γ-counter. The characteristics of the Ang II binding AT1 receptor was determined by […]
Nonspecific binding was determined in the presence of 1 µM Ang II.The specific binding was determined by subtracting the nonspecific binding from the total bound The apparent dissociation constant Ki values were calculated from IC50 values using the Cheng-Prusoff equation. […]
as §1

| Compound | Ki (AT1 receptor) [nM] | Function (AT2 receptor agonist / antagonist) (AT2 receptor [1]; 3-day treatment, 10 or 100 nM, with or without PD-123,319 (10 uM) or Ang II) | Ki (AT2 receptor [2]) [nM] | melting point [°C] | morphology compared to untreated cells (AT2 receptor [1]; PD-123,319 alone) | ratio of cell neurite outgrowth (cells with neurites as percentage of total cells) (AT2 receptor [1]; 3-day treatment, substance alone (Ang II 100 nM; compounds 10 or 100 nM)) [%] | Ki (AT2 receptor [2]; displacement of [125I]-CGP42112, HEK293-hAT2R membranes, means ± SE, triplicate, read-out: Ki (nM) AT2R) [nM] |
| --- | --- | --- | --- | --- | --- | --- | --- |
| CCCCOc1ccc(S(=O)(=O)NC(=O)OC(C)C)c(-c2cccc(Cn3cncn3)c2)c1 [8l, Isopropyl((3'-((1H-1,2,4-triazol-1-yl)methyl)-5-butoxy-[1,1′-biphenyl]-2-yl)sulfonyl)carbamate] | 2005 ± 1.16 | antagonistic activity; also recorded: AT2R antagonist; also recorded: antagonist activity | 56.6 ± 1.16 | – | – | – | – |
| CCCCOC(=O)NS(=O)(=O)c1ccc(CCCC)cc1-c1cccc(Cn2cccn2)c1 [9f, Butyl((3'-((1H-pyrazol-1-yl)methyl)-5-butyl-[1,1′-biphenyl]-2-yl)sulfonyl)carbamate] | 1310 ± 1.11 | – | 467.9 ± 1.19 | 142.5 to 143.1 | – | – | – |
| CCCCC(=O)NS(=O)(=O)c1ccc(CC(C)C)cc1-c1cccc(Cn2cccn2)c1 [9a, N-((3'-((1H-pyrazol-1-yl)methyl)-5-isobutyl-[1,1′-biphenyl]-2-yl)sulfonyl)pentanamide] | 1264 ± 1.14 | – | 1152 ± 1.1 | 125.8 to 126.7 | – | – | – |
| CCCCc1ccc(S(=O)(=O)NC(=O)OCC(C)C)c(-c2cccc(Cn3cccn3)c2)c1 [9g, Isobutyl((3'-((1H-pyrazol-1-yl)methyl)-5-butyl-[1,1′-biphenyl]-2-yl)sulfonyl)carbamate] | 1212 ± 1.12 | – | 513.3 ± 1.18 | 149.3 to 151.2 | – | – | – |
| CC(C)COC(=O)NS(=O)(=O)c1ccc(CC(C)C)cc1-c1cccc(Cn2cncn2)c1 [8c, Isobutyl((3'-((1H-1,2,4-triazol-1-yl)methyl)-5-isobutyl-[1,1′-biphenyl]-2-yl)sulfonyl)carbamate] | 1037 ± 1.1 | – | 322 ± 1.24 | 145.3 to 146.2 | – | – | – |
| CCCCc1ccc(S(=O)(=O)NC(=O)OCC(C)C)c(-c2cccc(Cn3cncn3)c2)c1 [8g, Isobutyl((3'-((1H-1,2,4-triazol-1-yl)methyl)-5-butyl-[1,1′-biphenyl]-2-yl)sulfonyl)carbamate] | 945.5 ± 1.22 | – | 347.5 ± 1.36 | 168.4 to 169.1 | – | – | – |
| Cc1cc(Cn2cnc3c2C[C@@H](C(=O)O)N(C(=O)C(c2ccccc2)c2ccccc2)C3)ccc1N(C)C [PD-123,319, reference compound] | – | – | – | – | did not alter | – | – |
| CCCCC(=O)NS(=O)(=O)c1ccc(CCCC)cc1-c1cccc(Cn2cncn2)c1 [8e, N-((3'-((1H-1,2,4-triazol-1-yl)methyl)-5-butyl-[1,1′-biphenyl]-2-yl)sulfonyl)pentanamide] | 505.2 ± 1.4 | – | 753.9 ± 1.1 | 141.8 to 142.4 | – | – | – |
| CC(C)Cc1ccc(S(=O)(=O)NC(=O)OC(C)C)c(-c2cccc(Cn3cccn3)c2)c1 [9d, Isopropyl((3'-((1H-pyrazol-1-yl)methyl)-5-isobutyl-[1,1′-biphenyl]-2-yl)sulfonyl)carbamate] | 1549 ± 1.11 | – | 74.1 ± 1.16 | 146.6 to 147.5 | – | – | – |
| CCCCOC(=O)NS(=O)(=O)c1ccc(CC(C)C)cc1-c1cccc(Cn2cncn2)c1 [8b, ((3'-((1H-1,2,4-triazol-1-yl)methyl)-5-isobutyl-[1,1′-biphenyl]-2-yl)sulfonyl)carbamae] | 846.1 ± 1.17 | – | 273.5 ± 1.2 | 148.1 to 149.3 | – | – | – |
| CCCCC(=O)NS(=O)(=O)c1ccc(CCCC)cc1-c1cccc(Cn2cccn2)c1 [9e, N-((3'-((1H-pyrazol-1-yl)methyl)-5-butyl-[1,1′-biphenyl]-2-yl)sulfonyl)pentanamide] | 363.9 ± 1.28 | – | 992.9 ± 1.26 | 140.1 to 141.3 | – | – | – |
| CCCCOC(=O)NS(=O)(=O)c1ccc(CCCC)cc1-c1cccc(Cn2cncn2)c1 [8f, Butyl((3'-((1H-1,2,4-triazol-1-yl)methyl)-5-butyl-[1,1′-biphenyl]-2-yl)sulfonyl)carbamate] | 1425 ± 1.12 | – | 252.7 ± 1.2 | 150.1 to 151.4 | – | – | – |
| CCCCC(=O)NS(=O)(=O)c1ccc(CC(C)C)cc1-c1cccc(Cn2cncn2)c1 [8a, N-((3'-((1H-1,2,4-triazol-1-yl)methyl)-5-isobutyl-[1,1′-biphenyl]-2-yl)sulfonyl)pentanamide] | 629.4 ± 1.1 | – | 873.7 ± 1.1 | 138.4 to 139.7 | – | – | – |
| Ang II [reference compound] | – | – | – | – | – | ~20 | – |
| CCCCOC(=O)NS(=O)(=O)c1ccc(CC(C)C)cc1-c1cccc(Cn2cccn2)c1 [9b, Butyl((3'-((1H-pyrazol-1-yl)methyl)-5-isobutyl-[1,1′-biphenyl]-2-yl)sulfonyl)carbamate] | 989.7 ± 1.08 | – | – | 129.1 to 131.4 | – | – | 1027 ± 1.15 |
| CC(C)COC(=O)NS(=O)(=O)c1ccc(CC(C)C)cc1-c1cccc(Cn2cccn2)c1 [9c, Isobutyl((3'-((1H-pyrazol-1-yl)methyl)-5-isobutyl-[1,1′-biphenyl]-2-yl)sulfonyl)carbamate] | 1027 ± 1.08 | – | 916.2 ± 1.3 | 149.6 to 151.3 | – | – | – |
